Assay results as given in ChEMBL document CHEMBL4049403, “Oligo-aspartic acid conjugates with benzo[c][2,6]naphthyridine-8-carboxylic acid scaffold as picomolar inhibitors of CK2” (Bioorg Med Chem, 2017).
Where a SMILES comes first, the peptide text is derived from it. The star is where a group is joined. X1 = O=C(O)c1ccc2c(c1)nc(OCCCCCCCCC(=O)*)c1ccncc12

Columns and labels:
[1] = target: Serine/threonine-protein kinase 33 (Homo sapiens) (UniProt Q9BYT3); test: Inhibition of human STK33 assessed as residual activity at 1 uM in presence of [33P]ATP by filter binding assay relative to control
[2] = target: Mitogen-activated protein kinase 3 (Homo sapiens) (UniProt P27361); test: Inhibition of human ERK1 assessed as residual activity at 1 uM in presence of [33P]ATP by filter binding assay relative to control
[3] = target: Mitogen-activated protein kinase kinase kinase kinase 3 (Homo sapiens) (UniProt Q8IVH8); test: Inhibition of human MAP4K3 assessed as residual activity at 1 uM in presence of [33P]ATP by filter binding assay relative to control
[4] = target: Serine/threonine-protein kinase SIK3 (Homo sapiens) (UniProt Q9Y2K2); test: Inhibition of human SIK3 assessed as residual activity at 1 uM in presence of [33P]ATP by filter binding assay relative to control
[5] = target: Homeodomain-interacting protein kinase 2 (Homo sapiens) (UniProt Q9H2X6); test: Inhibition of human HIPK2 assessed as residual activity at 1 uM in presence of 33P-ATP by filter-binding assay relative to control
[6] = target: Serine/threonine-protein kinase OSR1 (Homo sapiens) (UniProt O95747); test: Inhibition of human OSR1 assessed as residual activity at 1 uM in presence of [33P]ATP by filter binding assay relative to control
[7] = target: Ephrin type-A receptor 4 (Homo sapiens) (UniProt P54764); test: Inhibition of human EPH-A4 assessed as residual activity at 1 uM in presence of [33P]ATP by filter binding assay relative to control
[8] = target: Serine/threonine-protein kinase D1 (Homo sapiens) (UniProt Q15139); test: Inhibition of human PKD1 assessed as residual activity at 1 uM in presence of [33P]ATP by filter binding assay relative to control
[9] = target: Serine/threonine-protein kinase Nek2 (Homo sapiens) (UniProt P51955); test: Inhibition of human NEK2a assessed as residual activity at 1 uM in presence of [33P]ATP by filter binding assay relative to control
[10] = target: Tyrosine-protein kinase Yes (Homo sapiens) (UniProt P07947); test: Inhibition of human YES1 assessed as residual activity at 1 uM in presence of [33P]ATP by filter binding assay relative to control
[11] = target: MAP kinase-activated protein kinase 2 (Homo sapiens) (UniProt P49137); test: Inhibition of human MAPKAP-K2 assessed as residual activity at 1 uM in presence of [33P]ATP by filter binding assay relative to control
[12] = target: Ribosomal protein S6 kinase alpha-3 (Homo sapiens) (UniProt P51812); test: Inhibition of human RSK2 assessed as residual activity at 1 uM in presence of 33P-ATP by filter-binding assay relative to control
[13] = target: Ribosomal protein S6 kinase alpha-1 (Homo sapiens) (UniProt Q15418); test: Inhibition of human RSK1 assessed as residual activity at 1 uM in presence of 33P-ATP by filter-binding assay relative to control
[14] = target: Protein-tyrosine kinase 6 (Homo sapiens) (UniProt Q13882); test: Inhibition of human BRK assessed as residual activity at 1 uM in presence of 33P-ATP by filter-binding assay relative to control
[15] = target: Dual specificity tyrosine-phosphorylation-regulated kinase 3 (Homo sapiens) (UniProt O43781); test: Inhibition of human DYRK3 assessed as residual activity at 1 uM in presence of 33P-ATP by filter-binding assay relative to control
[16] = target: Death-associated protein kinase 1 (Homo sapiens) (UniProt P53355); test: Inhibition of human DAPK1 assessed as residual activity at 1 uM in presence of 33P-ATP by filter-binding assay relative to control
Homo sapiens [17] = species on record: Homo sapiens; test: Inhibition of human PKA assessed as residual activity at 1 uM in presence of [33P]ATP by filter binding assay relative to control
[18] = target: Serine/threonine-protein kinase PAK 2 (Homo sapiens) (UniProt Q13177); test: Inhibition of human PAK2 assessed as residual activity at 1 uM in presence of [33P]ATP by filter binding assay relative to control
[19] = target: SRSF protein kinase 1 (Homo sapiens) (UniProt Q96SB4); test: Inhibition of human SRPK1 assessed as residual activity at 1 uM in presence of [33P]ATP by filter binding assay relative to control
[20] = target: Serine/threonine-protein kinase Chk2 (Homo sapiens) (UniProt O96017); test: Inhibition of human CHK2 assessed as residual activity at 1 uM in presence of [33P]ATP by filter binding assay relative to control
[21] = target: Receptor-interacting serine/threonine-protein kinase 2 (Homo sapiens) (UniProt O43353); test: Inhibition of human RIPK2 assessed as residual activity at 1 uM in presence of 33P-ATP by filter-binding assay relative to control
Homo sapiens [22] = species on record: Homo sapiens; test: Inhibition of human CK2 assessed as residual activity at 1 uM in presence of 33P-ATP by filter-binding assay relative to control
[23] = target: Tau-tubulin kinase 2 (Homo sapiens) (UniProt Q6IQ55); test: Inhibition of human TTBK2 assessed as residual activity at 1 uM in presence of [33P]ATP by filter binding assay relative to control
[24] = target: Casein kinase I isoform gamma-2 (Homo sapiens) (UniProt P78368); test: Inhibition of human CK1gamma2 assessed as residual activity at 1 uM in presence of [33P]ATP by filter binding assay relative to control
[25] = target: Fibroblast growth factor receptor 1 (Homo sapiens) (UniProt P11362); test: Inhibition of human FGFR1 assessed as residual activity at 1 uM in presence of [33P]ATP by filter binding assay relative to control
[26] = target: Protein kinase C gamma type (Homo sapiens) (UniProt P05129); test: Inhibition of human PKCgamma assessed as residual activity at 1 uM in presence of [33P]ATP by filter binding assay relative to control
[27] = target: Tyrosine-protein kinase ABL1 (Homo sapiens) (UniProt P00519); test: Inhibition of human ABL assessed as residual activity at 1 uM in presence of [33P]ATP by filter binding assay relative to control
[28] = target: Dual specificity mitogen-activated protein kinase kinase 6 (Homo sapiens) (UniProt P52564); test: Inhibition of human MKK6 assessed as residual activity at 1 uM in presence of [33P]ATP by filter binding assay relative to control
[29] = target: RAC-beta serine/threonine-protein kinase (Homo sapiens) (UniProt P31751); test: Inhibition of human PKBb assessed as residual activity at 1 uM in presence of [33P]ATP by filter binding assay relative to control
[30] = target: Serine/threonine-protein kinase Nek6 (Homo sapiens) (UniProt Q9HC98); test: Inhibition of human NEK6 assessed as residual activity at 1 uM in presence of [33P]ATP by filter binding assay relative to control

Sequence of Tyrosine-protein kinase ABL1 (Homo sapiens) (P00519 whole entry): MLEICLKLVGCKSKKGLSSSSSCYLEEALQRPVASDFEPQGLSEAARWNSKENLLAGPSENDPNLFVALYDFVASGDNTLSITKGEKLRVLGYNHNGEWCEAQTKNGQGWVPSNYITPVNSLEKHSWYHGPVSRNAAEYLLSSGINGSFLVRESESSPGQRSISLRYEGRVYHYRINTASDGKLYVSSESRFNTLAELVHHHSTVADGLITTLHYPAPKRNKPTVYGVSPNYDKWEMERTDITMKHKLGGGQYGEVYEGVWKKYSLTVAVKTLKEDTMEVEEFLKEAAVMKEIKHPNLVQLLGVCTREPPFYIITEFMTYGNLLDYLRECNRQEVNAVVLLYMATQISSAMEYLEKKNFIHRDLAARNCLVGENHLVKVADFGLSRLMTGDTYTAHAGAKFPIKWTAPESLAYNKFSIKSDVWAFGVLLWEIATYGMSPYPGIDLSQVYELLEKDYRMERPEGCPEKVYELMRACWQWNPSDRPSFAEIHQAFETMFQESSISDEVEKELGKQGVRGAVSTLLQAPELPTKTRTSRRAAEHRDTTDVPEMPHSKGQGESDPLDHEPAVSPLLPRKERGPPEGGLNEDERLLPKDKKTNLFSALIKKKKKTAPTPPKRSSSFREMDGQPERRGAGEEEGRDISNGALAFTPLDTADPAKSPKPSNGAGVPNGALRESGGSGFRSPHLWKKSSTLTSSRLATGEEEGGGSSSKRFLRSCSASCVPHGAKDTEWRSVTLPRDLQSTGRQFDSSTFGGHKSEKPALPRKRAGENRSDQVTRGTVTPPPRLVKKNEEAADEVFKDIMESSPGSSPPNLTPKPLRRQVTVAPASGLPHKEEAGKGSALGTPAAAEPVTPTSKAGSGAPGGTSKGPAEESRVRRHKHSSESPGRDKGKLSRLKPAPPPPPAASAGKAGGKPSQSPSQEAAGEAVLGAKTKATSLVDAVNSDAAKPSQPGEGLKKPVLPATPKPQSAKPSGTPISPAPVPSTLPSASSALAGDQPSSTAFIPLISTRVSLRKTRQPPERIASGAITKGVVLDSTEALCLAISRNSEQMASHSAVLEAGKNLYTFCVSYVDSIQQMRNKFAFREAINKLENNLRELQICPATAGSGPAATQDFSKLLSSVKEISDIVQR
Sequence of Casein kinase I isoform gamma-2 (Homo sapiens) (P78368 whole entry, looked up, canonical isoform): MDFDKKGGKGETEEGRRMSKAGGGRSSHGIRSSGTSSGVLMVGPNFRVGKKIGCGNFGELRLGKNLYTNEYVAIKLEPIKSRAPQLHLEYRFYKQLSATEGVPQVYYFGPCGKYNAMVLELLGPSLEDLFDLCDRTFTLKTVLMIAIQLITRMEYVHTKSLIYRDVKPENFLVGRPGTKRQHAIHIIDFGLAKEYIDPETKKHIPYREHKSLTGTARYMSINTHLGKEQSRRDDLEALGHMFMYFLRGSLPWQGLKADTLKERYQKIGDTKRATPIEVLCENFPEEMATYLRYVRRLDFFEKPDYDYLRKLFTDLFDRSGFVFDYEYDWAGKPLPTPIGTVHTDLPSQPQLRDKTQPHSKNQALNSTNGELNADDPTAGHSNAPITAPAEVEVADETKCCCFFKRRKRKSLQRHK
Sequence of Serine/threonine-protein kinase Chk2 (Homo sapiens) (O96017 whole entry): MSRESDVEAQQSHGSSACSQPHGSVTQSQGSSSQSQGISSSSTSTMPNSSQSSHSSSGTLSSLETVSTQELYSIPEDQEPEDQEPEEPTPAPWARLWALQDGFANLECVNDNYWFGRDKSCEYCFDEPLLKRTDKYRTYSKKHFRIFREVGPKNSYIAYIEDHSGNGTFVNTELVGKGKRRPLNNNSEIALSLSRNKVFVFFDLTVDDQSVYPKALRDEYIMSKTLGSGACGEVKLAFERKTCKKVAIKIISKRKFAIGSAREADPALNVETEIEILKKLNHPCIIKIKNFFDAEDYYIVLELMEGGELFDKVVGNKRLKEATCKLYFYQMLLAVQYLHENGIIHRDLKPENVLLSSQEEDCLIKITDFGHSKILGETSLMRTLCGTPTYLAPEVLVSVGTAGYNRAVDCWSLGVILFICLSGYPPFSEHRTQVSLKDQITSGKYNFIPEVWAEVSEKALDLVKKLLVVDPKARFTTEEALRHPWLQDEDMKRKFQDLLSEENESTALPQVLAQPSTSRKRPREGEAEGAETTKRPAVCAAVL
Sequence of Serine/threonine-protein kinase PAK 2 (Homo sapiens) (Q13177 whole entry): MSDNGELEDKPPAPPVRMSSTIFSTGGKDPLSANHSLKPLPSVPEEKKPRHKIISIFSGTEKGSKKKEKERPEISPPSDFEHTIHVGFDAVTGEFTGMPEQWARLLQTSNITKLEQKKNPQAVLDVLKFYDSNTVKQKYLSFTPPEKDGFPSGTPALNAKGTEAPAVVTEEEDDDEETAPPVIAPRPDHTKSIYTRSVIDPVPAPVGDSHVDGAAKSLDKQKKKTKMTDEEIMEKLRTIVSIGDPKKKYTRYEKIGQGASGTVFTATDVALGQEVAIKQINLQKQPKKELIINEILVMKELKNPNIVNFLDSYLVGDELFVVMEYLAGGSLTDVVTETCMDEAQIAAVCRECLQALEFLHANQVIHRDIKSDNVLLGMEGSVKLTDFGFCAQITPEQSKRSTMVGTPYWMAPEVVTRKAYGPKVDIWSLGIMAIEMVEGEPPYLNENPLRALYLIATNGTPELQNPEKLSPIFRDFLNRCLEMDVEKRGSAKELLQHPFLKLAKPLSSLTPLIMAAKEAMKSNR
Sequence of Ribosomal protein S6 kinase alpha-3 (Homo sapiens) (P51812 whole entry): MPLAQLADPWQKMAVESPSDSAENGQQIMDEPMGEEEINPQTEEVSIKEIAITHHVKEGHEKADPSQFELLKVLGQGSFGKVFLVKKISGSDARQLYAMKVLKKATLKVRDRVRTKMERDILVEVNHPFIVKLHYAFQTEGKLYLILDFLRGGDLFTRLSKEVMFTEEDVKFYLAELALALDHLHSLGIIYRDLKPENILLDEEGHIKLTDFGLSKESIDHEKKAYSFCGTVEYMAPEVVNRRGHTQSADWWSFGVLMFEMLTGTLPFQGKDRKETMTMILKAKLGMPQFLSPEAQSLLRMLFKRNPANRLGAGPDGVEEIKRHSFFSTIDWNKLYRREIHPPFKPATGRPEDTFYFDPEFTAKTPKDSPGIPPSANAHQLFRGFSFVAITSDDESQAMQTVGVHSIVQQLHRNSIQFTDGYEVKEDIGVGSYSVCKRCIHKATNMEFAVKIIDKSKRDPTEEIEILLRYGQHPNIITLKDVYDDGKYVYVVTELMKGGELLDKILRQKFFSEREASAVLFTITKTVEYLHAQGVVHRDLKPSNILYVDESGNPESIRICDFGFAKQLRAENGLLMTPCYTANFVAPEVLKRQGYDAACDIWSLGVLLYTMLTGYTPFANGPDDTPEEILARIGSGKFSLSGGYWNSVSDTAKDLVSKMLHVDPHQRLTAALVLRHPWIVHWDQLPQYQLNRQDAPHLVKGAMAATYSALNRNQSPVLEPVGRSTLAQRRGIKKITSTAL
Sequence of Ribosomal protein S6 kinase alpha-1 (Homo sapiens) (Q15418 whole entry): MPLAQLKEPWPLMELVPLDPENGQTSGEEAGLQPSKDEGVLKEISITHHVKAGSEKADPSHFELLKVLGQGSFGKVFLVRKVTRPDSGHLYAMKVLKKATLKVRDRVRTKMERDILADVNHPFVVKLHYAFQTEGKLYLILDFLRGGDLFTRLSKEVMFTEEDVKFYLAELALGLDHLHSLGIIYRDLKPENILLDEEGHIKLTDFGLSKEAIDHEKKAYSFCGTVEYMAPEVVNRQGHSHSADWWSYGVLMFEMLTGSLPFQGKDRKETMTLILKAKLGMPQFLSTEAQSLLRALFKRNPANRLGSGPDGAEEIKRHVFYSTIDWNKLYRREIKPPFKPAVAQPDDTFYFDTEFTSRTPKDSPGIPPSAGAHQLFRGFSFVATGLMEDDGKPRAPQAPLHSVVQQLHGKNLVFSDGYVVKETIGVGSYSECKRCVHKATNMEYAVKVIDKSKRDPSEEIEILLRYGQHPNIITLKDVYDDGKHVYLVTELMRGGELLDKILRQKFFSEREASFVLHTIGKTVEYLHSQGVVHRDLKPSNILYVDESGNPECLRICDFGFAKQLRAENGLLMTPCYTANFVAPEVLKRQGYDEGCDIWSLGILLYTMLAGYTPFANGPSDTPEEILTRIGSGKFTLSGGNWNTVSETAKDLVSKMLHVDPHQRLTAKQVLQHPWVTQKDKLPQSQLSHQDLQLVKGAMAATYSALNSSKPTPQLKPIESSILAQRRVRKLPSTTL
Sequence of Dual specificity mitogen-activated protein kinase kinase 6 (Homo sapiens) (P52564 whole entry): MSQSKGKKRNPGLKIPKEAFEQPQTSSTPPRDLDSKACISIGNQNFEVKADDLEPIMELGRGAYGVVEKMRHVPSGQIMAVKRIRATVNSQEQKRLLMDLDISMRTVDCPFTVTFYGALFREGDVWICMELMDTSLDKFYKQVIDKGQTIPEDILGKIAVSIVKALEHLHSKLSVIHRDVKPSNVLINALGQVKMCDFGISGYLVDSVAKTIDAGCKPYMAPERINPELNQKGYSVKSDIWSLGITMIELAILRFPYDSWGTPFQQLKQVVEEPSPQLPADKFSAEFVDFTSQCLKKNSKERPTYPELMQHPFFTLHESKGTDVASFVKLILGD
Sequence of Tyrosine-protein kinase Yes (Homo sapiens) (P07947 2-543 limits assumed): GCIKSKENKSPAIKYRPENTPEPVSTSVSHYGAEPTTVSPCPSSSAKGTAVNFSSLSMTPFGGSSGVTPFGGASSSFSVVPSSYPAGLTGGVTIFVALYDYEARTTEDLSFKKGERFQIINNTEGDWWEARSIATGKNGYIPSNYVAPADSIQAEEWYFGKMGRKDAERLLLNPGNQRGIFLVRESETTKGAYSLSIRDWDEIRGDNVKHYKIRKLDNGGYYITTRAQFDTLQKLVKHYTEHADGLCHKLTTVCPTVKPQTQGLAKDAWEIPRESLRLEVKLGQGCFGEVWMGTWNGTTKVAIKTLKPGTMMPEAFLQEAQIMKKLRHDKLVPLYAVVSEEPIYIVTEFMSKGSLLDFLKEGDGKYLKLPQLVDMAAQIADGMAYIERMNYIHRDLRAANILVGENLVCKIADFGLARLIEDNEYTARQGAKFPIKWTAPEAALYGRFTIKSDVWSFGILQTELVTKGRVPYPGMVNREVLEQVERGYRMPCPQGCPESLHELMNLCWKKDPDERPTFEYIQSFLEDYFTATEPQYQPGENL

SMILES: NCCCC[C@H](NC(=O)[C@H](CC(=O)O)NC(=O)[C@H](CC(=O)O)NC(=O)[C@H](CC(=O)O)NC(=O)[C@H](CC(=O)O)NC(=O)[C@H](CC(=O)O)NC(=O)[C@H](CC(=O)O)NC(=O)CCCCCCCCOc1nc2cc(C(=O)O)ccc2c2cnccc12)C(=O)O (X1-DDDDDDK-OH)
- Activity [1]: 83%
- Activity [2]: 106%
- Activity [3]: 95%
- Activity [4]: 90%
- Activity [5]: 5%
- Activity [6]: 111%
- Activity [7]: 104%
- Activity [8]: 79%
- Activity [9]: 76%
- Activity [10]: 91%
- Activity [11]: 100%
- Activity [12]: 62%
- Activity [13]: 50%
- Activity [14]: 51%
- Activity [15]: 4%
- Activity [16]: 50%
- Activity (Homo sapiens [17]): 94%
- Activity [18]: 97%
- Activity [19]: 86%
- Activity [20]: 92%
- Activity [21]: 39%
- Activity (Homo sapiens [22]): 1%
- Activity [23]: 101%
- Activity [24]: 86%
- Activity [25]: 92%
- Activity [26]: 94%
- Activity [27]: 100%
- Activity [28]: 74%
- Activity [29]: 100%
- Activity [30]: 90%
